Reference: ChEMBL document CHEMBL5154778, “Discovery and Structure-Based Optimization of Novel Atg4B Inhibitors for the Treatment of Castration-Resistant Prostate Cancer” (J Med Chem, 2022)
Activity calls are given as the source filed them. No cut-off for these calls is given here.

Assays:
Homo sapiens = species on record: Homo sapiens; assay: Selectivity ratio of IC50 for inhibition of PLA2 (unknown origin) to IC50 for inhibition of recombinant ATG4B (unknown origin) expressed in Escherichia coli BL21(DE3) pLysS cells
Cysteine protease ATG4B [1] = target: T1, Cysteine protease ATG4B (Homo sapiens, UniProt Q9Y4P1); assay: Inhibition of recombinant ATG4B (unknown origin) expressed in Escherichia coli BL21(DE3) pLysS cells using LC3-GST as substrate incubated for 3 hrs by coomassie brilliant blue staining based assay
T1 sequence (Q9Y4P1 whole entry): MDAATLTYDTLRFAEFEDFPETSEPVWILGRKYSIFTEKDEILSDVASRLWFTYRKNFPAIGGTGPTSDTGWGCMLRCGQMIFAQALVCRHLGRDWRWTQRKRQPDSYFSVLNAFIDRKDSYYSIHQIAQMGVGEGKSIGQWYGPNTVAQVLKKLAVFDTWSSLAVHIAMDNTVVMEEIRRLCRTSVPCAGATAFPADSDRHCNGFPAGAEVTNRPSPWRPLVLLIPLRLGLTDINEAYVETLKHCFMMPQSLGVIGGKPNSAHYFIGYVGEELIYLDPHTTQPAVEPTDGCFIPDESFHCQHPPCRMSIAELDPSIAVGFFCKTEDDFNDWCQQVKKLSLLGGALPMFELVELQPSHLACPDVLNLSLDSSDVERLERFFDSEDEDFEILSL

Phospholipase A2 = Phospholipase A2 (Homo sapiens, UniProt P04054); assay: Inhibition of PLA2 (unknown origin)
LNCaP [2] = assay: Induction of autophagy in human LNCaP cells assessed as increase in GABARAP2 level at 10 uM preincubated for 2 hrs followed by medium change into aminoacid free medium for 3 hrs by immunoblotting analysis; assay type: functional, cell-based; details: time 5.0 hrs
LNCaP [3] = assay: Induction of apoptosis in human LNCaP cells assessed as increase in cleaved capase-9 expression at 10 uM preincubated for 2 hrs followed by abiraterone addition and measured after 24 hrs by Western blotting analysis; assay type: functional, cell-based; details: time 26.0 hrs
[4] = target: T2, Cysteine protease ATG4B (Homo sapiens) (UniProt Q9Y4P1); assay: Inhibition of recombinant ATG4B (unknown origin) expressed in Escherichia coli BL21(DE3) pLysS cells at 100 uM using LC3-GST as substrate incubated for 3 hrs by coomassie brilliant blue staining based assay
T2 sequence (whole entry): T1 sequence (Q9Y4P1 whole entry)

LNCaP [5] = assay: Inhibition of AFM induced autophagy in human LNCaP cells assessed as suppression of autophagosome by DAP green staining based assay; assay type: functional, cell-based
LNCaP [6] = assay: Inhibition of enzalutamide induced autophagy in human LNCaP cells at 10 uM preincubated for 2 hrs followed by enzalutamide addition and measured after 24 hrs by DAP green staining based assay; assay type: functional, cell-based; details: time 26.0 hrs
LNCaP [7] = assay: Induction of apoptosis in human LNCaP cells assessed as increase in cleaved PARP expression at 10 uM preincubated for 2 hrs followed by abiraterone addition and measured after 24 hrs by Western blotting analysis; assay type: functional, cell-based; details: time 26.0 hrs
Cysteine protease ATG4B [8] = target: T1, Cysteine protease ATG4B; assay: Inhibition of recombinant ATG4B (unknown origin) expressed in Escherichia coli BL21(DE3) pLysS cells assessed as inhibition constant using LC3-GST as substrate incubated for 3 hrs by coomassie brilliant blue staining based assay
[9] = target: T2, Cysteine protease ATG4B (Homo sapiens); assay: Inhibition of recombinant ATG4B (unknown origin) expressed in Escherichia coli BL21(DE3) pLysS cells at 10 uM using LC3-GST as substrate incubated for 3 hrs by coomassie brilliant blue staining based assay
[10] = target: T2, Cysteine protease ATG4B (Homo sapiens); assay: Reversible inhibition of recombinant ATG4B (unknown origin) expressed in Escherichia coli BL21(DE3) pLysS cells at 100 uM using LC3-GST as substrate preincubated for 30 mins with 0.3 uM LC3-GST followed by dialysis and again incubated with 3 uM LC3-GST for 15 mins by coomassie brilliant blue staining based assay; details: time 45.0 min
[11] = target: T2, Cysteine protease ATG4B (Homo sapiens); assay: Inhibition of recombinant ATG4B (unknown origin) expressed in Escherichia coli BL21(DE3) pLysS cells at 20 to 50 uM using LC3-GST as substrate by coomassie brilliant blue staining based assay; details: dose 20-50 µM, time 15-180 min, TDE = time-dependent effect
LNCaP [12] = assay: Inhibition of abiraterone induced autophagy in human LNCaP cells at 10 uM preincubated for 2 hrs followed by abiraterone addition and measured after 24 hrs by DAP green staining based assay; assay type: functional, cell-based; details: time 26.0 hrs
LNCaP [13] = assay: Inhibition of AFM induced autophagy in human LNCaP cells assessed as restoration of p62 expression at 5 uM by Western blot analysis; assay type: functional, cell-based
LNCaP [14] = assay: Induction of autophagy in human LNCaP cells assessed as increase in Ser403-phosphorylated P62 level at 1 to 10 uM incubated for 24 hrs by Western blot analysis; assay type: functional, cell-based; details: dose 1-10 µM
LNCaP [15] = assay: Induction of apoptosis in human LNCaP cells assessed as increase in cleaved PARP expression at 10 uM preincubated for 2 hrs followed by enzalutamide addition and measured after 24 hrs by Western blotting analysis; assay type: functional, cell-based; details: time 26.0 hrs
LNCaP [16] = assay: Induction of apoptosis in human LNCaP cells assessed as increase in cleaved capase-9 expression at 10 uM preincubated for 2 hrs followed by enzalutamide addition and measured after 24 hrs by Western blotting analysis; assay type: functional, cell-based; details: time 26.0 hrs
LNCaP [17] = assay: Induction of apoptosis in human LNCaP cells transfected with Atg4B siRNA at 10 uM incubated for 24 hrs by immunoblotting analysis; assay type: functional, cell-based
LNCaP [18] = assay: Anticancer activity against human LNCaP cells assessed as reduction in cell viability incubated for 72 hrs by alamar blue assay; assay type: functional, cell-based; details: DDE = dose-dependent effect
LNCaP [19] = assay: Induction of autophagy in human LNCaP cells assessed as increase in LC3-2 level at 1 to 10 uM incubated for 24 hrs by Western blot analysis; assay type: functional, cell-based; details: dose 1-10 µM
LNCaP [20] = assay: Induction of apoptosis in human LNCaP cells assessed PARP cleavage at 10 uM incubated for 24 hrs by immunoblotting analysis; assay type: functional, cell-based
LNCaP [21] = assay: Induction of apoptosis in human LNCaP cells assessed as increase in cleaved PARP level at 5 uM preincubated for 2 hrs followed by enzalutamide addition and measured after 24 hrs by immunoblotting analysis; assay type: functional, cell-based; details: time 26.0 hrs
LNCaP [22] = assay: Induction of apoptosis in human LNCaP cells assessed as increase in cleaved PARP level at 5 uM preincubated for 2 hrs followed by abiraterone addition and measured after 24 hrs by immunoblotting analysis; assay type: functional, cell-based; details: time 26.0 hrs
LNCaP [23] = assay: Induction of apoptosis in human LNCaP cells assessed as increase in cleaved PARP level at 5 uM preincubated for 2 hrs followed by cabazitaxel addition and measured after 24 hrs by immunoblotting analysis; assay type: functional, cell-based; details: time 26.0 hrs
LNCaP [24] = assay: Inhibition of AFM induced autophagy in human LNCaP cells assessed as decrease in autophagic vesicles at 1 uM preincubated for 2 hrs followed by medium change into aminoacid free medium for 3 hrs by DAP green staining based assay; assay type: functional, cell-based; details: time 5.0 hrs
[25] = Inhibition of AFM induced autophagy in human LNCaP cells assessed as decrease in autophagic vesicles at 5 uM preincubated for 2 hrs followed by medium change into aminoacid free medium for 3 hrs by DAP green staining based assay; assay type: functional; details: time 5 hrs
LNCaP [26] = assay: Inhibition of AFM induced autophagy in human LNCaP cells assessed as restoration of p62 expression preincubated for 2 hrs followed by medium change into aminoacid free medium for 24 hrs by immunoblotting analysis; assay type: functional, cell-based; details: dose 1-10 µM, time 26.0 hrs, DDE = dose-dependent effect
LNCaP [27] = assay: Induction of apoptosis in human LNCaP cells assessed as increase in cleaved PARP level at 5 uM preincubated for 2 hrs followed by apalutamide addition and measured after 24 hrs by immunoblotting analysis; assay type: functional, cell-based; details: time 26.0 hrs

Sequence of Phospholipase A2 (P04054 whole entry): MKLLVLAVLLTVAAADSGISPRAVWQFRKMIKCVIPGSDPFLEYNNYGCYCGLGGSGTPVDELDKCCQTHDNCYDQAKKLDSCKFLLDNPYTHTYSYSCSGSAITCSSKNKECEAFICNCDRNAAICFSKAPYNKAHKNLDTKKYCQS

IC50 (Cysteine protease ATG4B [1]) [µM] | IC50 (Phospholipase A2) [µM] | SMILES | Ratio IC50 (Homo sapiens) | further results
73 | 0.35 | CCCCCCCCCCCCCCCCCCCc1ccc(C(=O)/C=C/C(=O)O)cc1 | 12 | –
36 | 30 | CCCCCc1ccc(C(=O)/C=C/C(=O)O)cc1 | 200 | –
130 | – | CCCc1ccc(C(=O)/C=C/C(=O)O)cc1 | – | –
– | – | CCN(CC)CCCC(C)Nc1ccnc2cc(Cl)ccc12 (stereo unspecified) | – | Activity (LNCaP [2]): Active
21 | 8 | CCCCCCCCCc1ccc(C(=O)/C=C/C(=O)O)cc1 | 93 | –
21 | 7.1 | CCCCCCCCCCCCCc1ccc(C(=O)/C=C/C(=O)O)cc1 | 85 | –
580 | – | O=C(O)/C=C/C(=O)c1ccccc1 | – | –
47 | – | CCCCCCCCCCCCCCCCCc1ccc(C(=O)/C=C/C(=O)O)cc1 | – | –
26 | 5.9 | CCCCCCCc1ccc(C(=O)/C=C/C(=O)O)cc1 | 56 | –
12 | 0.049 | CCCCCCCCCCCCCCCCCCc1ccc(C(=O)/C=C/C(=O)O)cc1 | 1 | Activity (LNCaP [3]): Active; inhibition [4]: Active; inhibition (LNCaP [5]): Active; inhibition (LNCaP [6]): Active; Activity (LNCaP [7]): Active; Ki (Cysteine protease ATG4B [8]): 4.6 µM; inhibition [9]: Active; inhibition [10]: Active; inhibition [11]: Tde; inhibition (LNCaP [12]): Active; inhibition (LNCaP [13]): Active
– | – | C[C@]12CC[C@H](O)CC1=CC[C@@H]1[C@@H]2CC[C@]2(C)C(c3cccnc3)=CC[C@@H]12 | – | Activity (LNCaP [14]): Active; Activity (LNCaP [15]): Active; Activity (LNCaP [16]): Active; Activity (LNCaP [17]): Active; Activity (LNCaP [18]): Dde; Activity (LNCaP [19]): Active; Activity (LNCaP [20]): Active
13 | 1.6 | CCCCCCCCCCc1ccc(C(=O)/C=C/C(=O)O)cc1 | 30 | –
13 | 1.3 | CCCCCCCCCCCCc1ccc(C(=O)/C=C/C(=O)O)cc1 | 24 | –
42 | – | CCCCCCCCCCCCCCCCCCCCCc1ccc(C(=O)/C=C/C(=O)O)cc1 | – | –
11 | 3.5 | CCCCCCCCCCCc1ccc(C(=O)/C=C/C(=O)O)cc1 | 80 | Activity (LNCaP [21]): Active; Activity (LNCaP [22]): Active; Activity (LNCaP [23]): Active; inhibition (LNCaP [24]): Active; Ki (Cysteine protease ATG4B [8]): 3.1 µM; inhibition at 5 µM [25]: 100%; inhibition (LNCaP [26]): Dde; Activity (LNCaP [27]): Active
46 | 5.4 | CCCCCCCCCCCCCCCc1ccc(C(=O)/C=C/C(=O)O)cc1 | 29 | –
